Columns and labels:
MDA-MB-468 = experiment: NCI 60 screen, MDA-MB-468; format: cell-based; conditions: Homo sapiens, Breast
Procedure: (§1) The compounds synthesized were tested at the National Cancer Institute (NCI) for anti-proliferative activity in the 60 human tumor cell line assay.

HOP-92 = experiment: NCI 60 screen, HOP-92; format: cell-based; conditions: Homo sapiens, Non-Small Cell Lung
Procedure: as §1

KM12 = experiment: NCI 60 screen, KM12; format: cell-based; conditions: Homo sapiens, Colon
Procedure: as §1

RPMI-8226 = experiment: NCI 60 screen, RPMI-8226; format: cell-based; conditions: Homo sapiens, Leukemia
Procedure: as §1

HL-60(TB) = experiment: NCI 60 screen, HL-60(TB); format: cell-based; conditions: Homo sapiens, Leukemia
Procedure: as §1

MCF7 = experiment: NCI 60 screen, MCF7; format: cell-based; conditions: Homo sapiens, Breast
Procedure: as §1

A549/ATCC = experiment: NCI 60 screen, A549/ATCC; format: cell-based; conditions: Homo sapiens, Non-Small Cell Lung
Procedure: as §1

K-562 = experiment: NCI 60 screen, K-562; format: cell-based; conditions: Homo sapiens, K562, Leukemia
Procedure: as §1

786-0 = experiment: NCI 60 screen, 786-0; format: cell-based; conditions: Homo sapiens, Renal
Procedure: as §1

NCI-H522 = experiment: NCI 60 screen, NCI-H522; format: cell-based; conditions: Homo sapiens, Non-Small Cell Lung
Procedure: as §1

A498 = experiment: NCI 60 screen, A498; format: cell-based; conditions: Homo sapiens, Renal
Procedure: as §1

CCRF-CEM = experiment: NCI 60 screen, CCRF-CEM; format: cell-based; conditions: Homo sapiens, Leukemia
Procedure: as §1

UACC-62 = experiment: NCI 60 screen, UACC-62; format: cell-based; conditions: Homo sapiens, Melanoma
Procedure: as §1

SK-MEL-5 = experiment: NCI 60 screen, SK-MEL-5; format: cell-based; conditions: Homo sapiens, Melanoma
Procedure: as §1

NCI-H226 = experiment: NCI 60 screen, NCI-H226; format: cell-based; conditions: Homo sapiens, Non-Small Cell Lung
Procedure: as §1

SK-MEL-2 [1] = experiment: NCI 60 screen, SK-MEL-2 (first line); format: cell-based; conditions: Homo sapiens; Melanoma, SK-MEL-2 (first of two lines so named, r37)
Procedure: as §1

NCI-322M = experiment: NCI 60 screen, NCI-322M; format: cell-based; conditions: Homo sapiens, Non-Small Cell Lung
Procedure: as §1

CAKI-1 = experiment: NCI 60 screen, CAKI-1; format: cell-based; conditions: Homo sapiens, Renal
Procedure: as §1

MOLT-4 = experiment: NCI 60 screen, MOLT-4; format: cell-based; conditions: Homo sapiens, Leukemia
Procedure: as §1

M14 = experiment: NCI 60 screen, M14; format: cell-based; conditions: Homo sapiens, Melanoma
Procedure: as §1

LOX IMVI = experiment: NCI 60 screen, LOX IMVI; format: cell-based; conditions: Homo sapiens, Melanoma
Procedure: as §1

HOP-62 = experiment: NCI 60 screen, HOP-62; format: cell-based; conditions: Homo sapiens, Non-Small Cell Lung
Procedure: as §1

UO-31 = experiment: NCI 60 screen, UO-31; format: cell-based; conditions: Homo sapiens, Renal
Procedure: as §1

NCI/ADR-RES = experiment: NCI 60 screen, NCI/ADR-RES; format: cell-based; conditions: Homo sapiens, Ovarian
Procedure: as §1

SF-295 = experiment: NCI 60 screen, SF-295; format: cell-based; conditions: Homo sapiens, CNS
Procedure: as §1

HCT-116 = experiment: NCI 60 screen, HCT-116; format: cell-based; conditions: Homo sapiens, Colon
Procedure: as §1

IGROV1 = experiment: NCI 60 screen, IGROV1; format: cell-based; conditions: Homo sapiens, IGROV-1, Ovarian
Procedure: as §1

BT-549 = experiment: NCI 60 screen, BT-549; format: cell-based; conditions: Homo sapiens, Breast
Procedure: as §1

HT29 = experiment: NCI 60 screen, HT29; format: cell-based; conditions: Homo sapiens, HT-29, Colon
Procedure: as §1

RXF393 = experiment: NCI 60 screen, RXF393; format: cell-based; conditions: Homo sapiens, RXF 393, Renal
Procedure: as §1

SNB-19 = experiment: NCI 60 screen, SNB-19; format: cell-based; conditions: Homo sapiens, CNS
Procedure: as §1

SK-OV-3 = experiment: NCI 60 screen, SK-OV-3; format: cell-based; conditions: Homo sapiens, Ovarian
Procedure: as §1

HS 578T = experiment: NCI 60 screen, HS 578T; format: cell-based; conditions: Homo sapiens, Breast
Procedure: as §1

SW-620 = experiment: NCI 60 screen, SW-620; format: cell-based; conditions: Homo sapiens, Colon
Procedure: as §1

EKVX = experiment: NCI 60 screen, EKVX; format: cell-based; conditions: Homo sapiens, Non-Small Cell Lung
Procedure: as §1

NCI-460 = experiment: NCI 60 screen, NCI-460; format: cell-based; conditions: Homo sapiens, Non-Small Cell Lung
Procedure: as §1

OVCAR-8 = experiment: NCI 60 screen, OVCAR-8; format: cell-based; conditions: Homo sapiens, Ovarian
Procedure: as §1

MDA-MB-435 = experiment: NCI 60 screen, MDA-MB-435; format: cell-based; conditions: Homo sapiens, Melanoma
Procedure: as §1

U251 = experiment: NCI 60 screen, U251; format: cell-based; conditions: Homo sapiens, U-251, CNS
Procedure: as §1

SR = experiment: NCI 60 screen, SR; format: cell-based; conditions: Homo sapiens, Leukemia
Procedure: as §1

PC-3 = experiment: NCI 60 screen, PC-3; format: cell-based; conditions: Homo sapiens, Prostatic
Procedure: as §1

NCI-H23 = experiment: NCI 60 screen, NCI-H23; format: cell-based; conditions: Homo sapiens, Non-Small Cell Lung
Procedure: as §1

HCC-2998 = experiment: NCI 60 screen, HCC-2998; format: cell-based; conditions: Homo sapiens, Colon
Procedure: as §1

SN12C = experiment: NCI 60 screen, SN12C; format: cell-based; conditions: Homo sapiens, Renal
Procedure: as §1

ACHN = experiment: NCI 60 screen, ACHN; format: cell-based; conditions: Homo sapiens, Renal
Procedure: as §1

SK-MEL-2 [2] = experiment: NCI 60 screen, SK-MEL-2 (second line); format: cell-based; conditions: Homo sapiens; Melanoma, SK-MEL-2 (second of two lines so named, r38)
Procedure: as §1

SNB-75 = experiment: NCI 60 screen, SNB-75; format: cell-based; conditions: Homo sapiens, CNS
Procedure: as §1

COLO 205 = experiment: NCI 60 screen, COLO 205; format: cell-based; conditions: Homo sapiens, Colon
Procedure: as §1

DU-145 = experiment: NCI 60 screen, DU-145; format: cell-based; conditions: Homo sapiens, Prostatic
Procedure: as §1

MALME-3M = experiment: NCI 60 screen, MALME-3M; format: cell-based; conditions: Homo sapiens, Melanoma
Procedure: as §1

UACC-257 = experiment: NCI 60 screen, UACC-257; format: cell-based; conditions: Homo sapiens, Melanoma
Procedure: as §1

HCT15 = experiment: NCI 60 screen, HCT15; format: cell-based; conditions: Homo sapiens, HCT-15, Colon
Procedure: as §1

MDA-MB-231/ATCC = experiment: NCI 60 screen, MDA-MB-231/ATCC; format: cell-based; conditions: Homo sapiens, Breast
Procedure: as §1

OVCAR-4 = experiment: NCI 60 screen, OVCAR-4; format: cell-based; conditions: Homo sapiens, Ovarian
Procedure: as §1

OVCAR-3 = experiment: NCI 60 screen, OVCAR-3; format: cell-based; conditions: Homo sapiens, Ovarian
Procedure: as §1

TK-10 = experiment: NCI 60 screen, TK-10; format: cell-based; conditions: Homo sapiens, Renal
Procedure: as §1

SF-539 = experiment: NCI 60 screen, SF-539; format: cell-based; conditions: Homo sapiens, CNS
Procedure: as §1

T-47D = experiment: NCI 60 screen, T-47D; format: cell-based; conditions: Homo sapiens, T47D, Breast
Procedure: as §1

SF-268 = experiment: NCI 60 screen, SF-268; format: cell-based; conditions: Homo sapiens, CNS
Procedure: as §1

OVCAR-5 = experiment: NCI 60 screen, OVCAR-5; format: cell-based; conditions: Homo sapiens, Ovarian
Procedure: as §1

[3] = system: chromosome alignment, centromeres, and spindle body; experiment: Fluorescence microscopy of chromosome alignment, centromeres and spindle body; format: cell-based; conditions: cells treated for several hours, FIGS. 8A-8B
Excerpt: FIGS. 8A-8B: Color images showing effects of compound 25 on chromosome alignment, centromeres, and spindle body. Microtubules that make up the mitotic spindle are detected with an antibody linked to a green fluorophore, which was detected with a fluorescence microscope. Centromeres were detected with a far red fluorophore (they are pseudocolored pink). DNA was detected with Hoechst DNA stain, which is blue.
In normal cells (FIG. 8A, upper two panels), chromosomes line up between the spindle poles at metaphase. In cells treated with compound 25 for several hours (FIG. 8A, lower two panels), cells still enter mitosis but centromeres are found all over the cell (not just in the middle between the poles of the spindle). […] However, when ZM is combined with compound 25, what was observed was a very dramatic disruption of spindle architecture. […] Without wishing to be bound by theory, it is believed that both Aurora B and the targets of compound 25 work in parallel to control tubulin function. When either one is inhibited alone, there is no effect since the other pathway compensates. When both are inhibited, the defect is detected.

## CCn1ccnc1C(=O)/C=C/c1ccc(CC(=O)Nc2ccc(F)cc2)cc1 [Compound 31, (E)-2-(4-(3-(1-ethyl-1H-imidazol-2-yl)-3-oxoprop-1-en-1-yl)phenyl)-N-(4-fluorophenyl)acetamide]
MDA-MB-468
  GI50: 1.99 µM
HOP-92
  GI50: 3.32 µM
KM12
  GI50: 3.06 µM
RPMI-8226
  GI50: 2.28 µM
HL-60(TB)
  GI50: 3.18 µM
MCF7
  GI50: 2.52 µM
A549/ATCC
  GI50: 4.16 µM
K-562
  GI50: 2.06 µM
786-0
  GI50: 4.36 µM
NCI-H522
  GI50: 3.92 µM
A498
  GI50: 3.73 µM
CCRF-CEM
  GI50: 4.34 µM
UACC-62
  GI50: 2.83 µM
SK-MEL-5
  GI50: 5.74 µM
NCI-H226
  GI50: 3.61 µM
SK-MEL-2 [1]
  GI50: 6.26 µM
NCI-322M
  GI50: 3.49 µM
CAKI-1
  GI50: 5.08 µM
MOLT-4
  GI50: 5.28 µM
M14
  GI50: 3.02 µM
LOX IMVI
  GI50: 0.56 µM
other
  melting point: 219 to 220 °C
HOP-62
  GI50: 3.92 µM
UO-31
  GI50: 2.65 µM
NCI/ADR-RES
  GI50: 5.37 µM
SF-295
  GI50: 4.41 µM
HCT-116
  GI50: 1.84 µM
IGROV1
  GI50: 4.63 µM
BT-549
  GI50: 2.94 µM
HT29
  GI50: 5.64 µM
RXF393
  GI50: 3.39 µM
SNB-19
  GI50: 3.58 µM
SK-OV-3
  GI50: 6.97 µM
HS 578T
  GI50: 5.36 µM
SW-620
  GI50: 4.29 µM
EKVX
  GI50: 3.59 µM
NCI-460
  GI50: 2.64 µM
OVCAR-8
  GI50: 4.86 µM
MDA-MB-435
  GI50: 4.58 µM
U251
  GI50: 1.88 µM
SR
  GI50: 0.53 µM
PC-3
  GI50: 7.06 µM
NCI-H23
  GI50: 4.25 µM
HCC-2998
  GI50: 5.1 µM
SN12C
  GI50: 3.71 µM
ACHN
  GI50: 3.95 µM
SK-MEL-2 [2]
  GI50: 4.92 µM
SNB-75
  GI50: 2.81 µM
COLO 205
  GI50: 4.29 µM
DU-145
  GI50: 4.45 µM
MALME-3M
  GI50: 16.7 µM
UACC-257
  GI50: 14 µM
HCT15
  GI50: 1.93 µM
MDA-MB-231/ATCC
  GI50: 3.36 µM
OVCAR-4
  GI50: 3.31 µM
OVCAR-3
  GI50: 3.92 µM
TK-10
  GI50: 6.01 µM
SF-539
  GI50: 2.93 µM
T-47D
  GI50: 3.8 µM
SF-268
  GI50: 3.81 µM
OVCAR-5
  GI50: 4.97 µM

## COc1cc2c(Nc3ccc(NC(=O)c4ccccc4)cc3)ncnc2cc1OCCCN1CCOCC1 [ZM447439, reference compound]
[3]
  Chromosome alignment / centromere position: Many misaligned chromosomes

Reference: US11098038B2, “Imidazole-based anticancer agents and derivatives thereof, and methods of making and using same” (The University of Toledo, priority 2017, dated 2021)
